Our source for the IC50 values is patent US20260097047A1, “Small molecule inhibitors of the ribosome biogenesis factor NVL2” (Board of Regents, The University of Texas System, priority 2023, published 2026).

Bounds are passed on as bounds.

The test system of the first assay is HCT116 cells. The experiment in a line: Cell viability assay (CellTiter-Glo, 72 hours) in HCT116 human colorectal cancer cells. The assay is classed as cell-based. To be noted: Homo sapiens, HCT-116; Table 1; HCT116, 72 hours; read-out: Activity. The method, boiled down: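 2,000 cells/well adhered overnight, then compound added by digital dispenser with DMSO normalized to 0.5%. Viability read after 72 h at 37 °C by ATP-based CellTiter-Glo luminescence. IC50 from ten-point curves baseline-corrected to vehicle, five-parameter asymmetric least-squares fit.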
For `CC#CCN1C(=O)c2ccccc2Sc2cc(NC(=O)N3CCC3)ccc21` [Table 1: —CH2CCMe; azetidin-1-yl; CH; CH, N-(10-(But-2-yn-1-yl)-11-oxo-10,11-dihydrodibenzo[b,f][1,4]thiazepin-7-yl) azetidine-1-carboxamide], the IC50 is below 500 nM.

The same assay, now with this note: Homo sapiens, HCT-116; Table 3; HCT116, 72 hours; read-out: Activity.
With `C#CCOCCN1C(=O)c2ccccc2Sc2cc(NC(=O)NC3CCCCC3)ccc21` [Table 3: —(CH2)2OCH2CCH; cHex; CH/CH, 1-Cyclohexyl-3-(11-oxo-10-(2-(prop-2-yn-1-yloxy)ethyl)-10,11-dihydrodibenzo[b,f][1,4]thiazepin-7-yl) urea], the IC50 is below 500 nM.

The assay is the same for the next values; noted with them: Homo sapiens, HCT-116; Table 4; HCT116, 72 hours; read-out: Activity.
With `CC#CCN1C(=O)c2ccccc2Sc2cc(NC(=S)Nc3ccc(OC)nc3)ccc21` [1-(10-(But-2-yn-1-yl)-11-oxo-10,11-dihydrodibenzo[b,f][1,4]thiazepin-7-yl)-3-(6-methoxypyridin-3-yl)thiourea], the IC50 was below 500 nM.

Staying with this assay, now noted: Homo sapiens, HCT-116; Table 5; HCT116, 72 hours; read-out: Activity.
Turning to `C#Cc1cccnc1Nc1ccc2c(c1)Sc1ccccc1C(=O)N2CC#CC` [10-(But-2-yn-1-yl)-7-((3-ethynylpyridin-2-yl)amino)dibenzo[b,f][1,4]thiazepin-11 (10H)-one], the IC50 was below 500 nM.
The same measure, in the same setting: as for `CC#CCN1C(=O)c2ccccc2Sc2cc(Nc3cccnc3C#N)ccc21` [3-((10-(But-2-yn-1-yl)-11-oxo-10,11-dihydrodibenzo[b,f][1,4]thiazepin-7-yl)amino) picolinonitrile], the figure is below 500 nM; as for `CC#CCN1C(=O)c2ccccc2Sc2cc(Nc3cc(C#N)ccn3)ccc21` [2-((10-(But-2-yn-1-yl)-11-oxo-10,11-dihydrodibenzo[b,f][1,4]thiazepin-7-yl)amino) isonicotinonitrile], below 500 nM; as for `CCC/C=C/CN1C(=O)c2ccccc2Sc2cc(Nc3ncccc3F)ccc21` [(E)-7-((3-Fluoropyridin-2-yl)amino)-10-(hex-2-en-1-yl)dibenzo[b,f][1,4]thiazepin-11 (10H)-one], below 500 nM.

Staying with this assay, now noted: Homo sapiens, HCT-116; Table 6; HCT116, 72 hours; read-out: Activity.
For `CC#CCN1C(=O)c2ccccc2Sc2cc(NCC3COC3)ccc21` [10-(But-2-yn-1-yl)-7-((oxetan-3-ylmethyl)amino)dibenzo[b,f][1,4]thiazepin-11 (10H)-one], the IC50 lay within 1000 to 5000 nM.
On the same count and under the same terms, as for `CC#CCN1C(=O)c2ccccc2Sc2cc(NC3CC(OC)C3)ccc21` (centres unmarked) [Table 6: —CH2CCMe; 3-MeOcBu; CH/CH; S, 10-(But-2-yn-1-yl)-7-((3-methoxycyclobutyl)amino)dibenzo[b,f][1,4]thiazepin-11 (10H)-one], the figure is below 500 nM.
On the same count and under the same terms, as for `CC#CCN1C(=O)c2ccccc2Sc2cc(NC3COCC3C)ccc21` (centres unmarked) [10-(But-2-yn-1-yl)-7-((4-methyltetrahydrofuran-3-yl)amino)dibenzo[b,f][1,4]thiazepin-11 (10H)-one], the figure is below 500 nM; as for `CC#CCN1C(=O)c2ccccc2Sc2cc(NCC3(C)COC3)ccc21` [10-(But-2-yn-1-yl)-7-(((3-methyloxetan-3-yl)methyl)amino)dibenzo[b,f][1,4]thiazepin-11 (10H)-one], below 500 nM.

Still in this assay, the particulars now being: Homo sapiens, HCT-116; Table 9; HCT116, 72 hours; read-out: Activity.
For the compound `CC#CCN1C(=O)c2ccccc2C(C)c2cc(NC(=O)c3ccc(OC)cc3)ccc21` (centres unmarked) [Table 9: —CH2CCMe; 4-MeOPh; CHMe, N-(5-(But-2-yn-1-yl)-11-methyl-6-oxo-6,11-dihydro-5H-dibenzo[b,e]azepin-2-yl)-4-methoxybenzamide], the IC50 was below 500 nM.

Still in this assay, the particulars now being: Homo sapiens, HCT-116; read-out: IC50s (cellular activity of MM017 derivatives).
Turning to `COCCN1C(=O)c2ccccc2Sc2cc(NC(=O)c3ccc(OC(F)(F)F)cc3)ccc21` [compound 4], the IC50 is 2100 nM.

The same assay, now with this note: Table 4; HCT116, 72 hours; read-out: Activity.
In the case of `CC#CCN1C(=O)c2ccccc2Sc2cc(NC(=S)Nc3cccc(OCF)c3)ccc21` [Table 4: —CH2CCMe; 3-FH2COPh; CH], the IC50 is below 500 nM.

Staying with this assay, now noted: Table 5; HCT116, 72 hours; read-out: Activity.
Take `CC#CCN1C(=O)c2ccccc2Sc2cc(Nc3cc(C)cnn3)cnc21`: the IC50 was below 500 nM.
On to `CC#CCN1C(=O)c2ccccc2Sc2cc(Nc3ncccc3OC)cnc21`, for which the IC50 is below 500 nM.
Same read-out and setting: under `Cc1cnc(Nc2cnc3c(c2)Sc2ccccc2C(=O)N3CC#CCl)c(C)n1` stands below 500 nM.

Staying with this assay, now noted: Table 6; HCT116, 72 hours; read-out: Activity.
As to `CC#CCN1C(=O)c2ccccc2Sc2cc(NC3CC(COC)C3)ccc21` (centres unmarked), the IC50 is below 500 nM.
On the same count and under the same terms, under `CC#CCN1C(=O)c2ccccc2Cc2cc(NCCCOC)ccc21` [Table 6: —CH2CCMe; (CH2)3OMe; CH/CH; CH2] stands below 500 nM.
As for `CC#CCN1C(=O)c2ccccc2Sc2cc(NC3CC4(CC(O)C4)C3)cnc21` (centres unmarked), the IC50 was below 500 nM.
Same read-out and setting: as for `CC#CCN1C(=O)c2ccccc2Sc2cc(NC3CC(O)C3)cnc21` (centres unmarked) [Table 6: —CH2CCMe; 3-HOcBu; CH/N; S], the figure is below 500 nM; as for `CC#CCN1C(=O)c2ccccc2Cc2cc(NC3CCCOC3)ccc21` (centres unmarked), below 500 nM.
For `CC#CCN1C(=O)c2ccccc2Cc2cc(NC34CC(OC)(C3)C4)ccc21`, the IC50 is below 500 nM.

Staying with this assay, now noted: Table 7; cell viability assay, CellTiter-Glo, 72 hours; scaffold drawing 42 with R^2, R^3, X/Y, Z; read-out: Activity.
Consider `C#CCOCCN1C(=O)c2ccc(F)cc2Sc2cc(NC(=O)c3ccc4scnc4c3)ccc21`, for which the IC50 was below 500 nM.
The same measure, in the same setting: under `CCCCCCN1C(=O)c2ccccc2Sc2cc(NC(=O)c3ccoc3)ccc21` [-nHexyl; furan-3-yl; CH/CH; S] stands below 500 nM; under `COCCN1C(=O)c2ccccc2Sc2cc(NC(=O)c3ccoc3C)ccc21` [—(CH2)2OMe; 2-Me-furan-3-yl; CH/CH; S], 500 to 1000 nM.
Still for that read-out and setting: as for `COCCN1C(=O)c2ccccc2Sc2cc(NC(=O)c3cccc(OCF)c3)ccc21` [—(CH2)2OMe; 3-FH2COPh; CH/CH; S], the figure is below 500 nM; as for `COCCN1C(=O)c2ccccc2Sc2cc(NC(=O)c3ccc(OC(F)(F)F)c(F)c3)ccc21` [—(CH2)2OMe; 3-F,4-F3COPh; CH/CH; S], 1000 to 5000 nM.
Turning to `COCCN1C(=O)c2ccccc2Sc2cc(NC(=O)c3ccc(C(F)(F)F)cc3)ccc21` [—(CH2)2OMe; 4-CF3Ph; CH/CH; S], the IC50 fell in the range of 1000 to 5000 nM.
The same measure, in the same setting: as for `C#Cc1cc(C(=O)Nc2ccc3c(c2)Sc2ccccc2C(=O)N3CCOC)ccn1` [—(CH2)2OMe; 2-(HCC)pyrid-4-yl; CH/CH; S], the figure is 1000 to 5000 nM.

The assay is the same for the next values; noted with them: Table 8; analogs of scaffold drawing 43 defined by R^2, R^3, X/Y, W; read-out: Activity (IC50 class, cell viability assay).
Regarding `CC#CCN1C(=O)c2cc(F)ccc2Sc2cc(NC(=O)c3cccc(OC)c3)ccc21` [—CH2CCMe; 3-MeOPh; CH/CF; CH], the IC50 was below 500 nM.
Still for that read-out and setting: under `CC#CCN1C(=O)c2ccc(Cl)cc2Sc2cc(NC(=O)C=CCOC)cnc21` [—CH2CCMe; CH—═CHCH2OMe; CCl/CH; N] stands below 500 nM.
On the same count and under the same terms, as for `O=C(CC1COC1)Nc1ccc2c(c1)Sc1ccc(F)cc1C(=O)N2CC#CC1CC1` [—CH2CC^cPr; (oxetan-3-yl)CH2; CH/CF; CH], the figure is below 500 nM; as for `CC#CCN1C(=O)c2ccccc2Sc2cc(NC(=O)CCCO)ccc21` [—CH2CCMe; (CH2)3OH; CH/CH; CH], below 500 nM; as for `CC#CCN1C(=O)c2cc(F)ccc2Sc2cc(NC(=O)C3CC4(CC(=NO)C4)C3)ccc21` (centres unmarked), below 500 nM.
Still for that read-out and setting: as for `CON=C1CC2(C1)CC(C(=O)Nc1ccc3c(c1)Sc1cc(Cl)ccc1C(=O)N3CC#CCl)C2` (centres unmarked), the figure is below 500 nM.
Consider `CC#CCN1C(=O)c2ccc(F)cc2Sc2cc(NC(=O)c3ccc4oc(=O)n(C)c4c3)ccc21`, for which the IC50 is below 500 nM.
Still for that read-out and setting: as for `CC#CCN1C(=O)c2ccccc2Sc2cc(NC(=O)C3CC4(CC(=NO)C4)C3)ccc21` (centres unmarked), the figure is below 500 nM.
Regarding `CC#CCN1C(=O)c2ccccc2Sc2cc(NC(=O)C34CC(O)(C3)C4)cnc21`, the IC50 is below 500 nM.
On the same count and under the same terms, under `COC12CC(C(=O)Nc3cnc4c(c3)Sc3ccccc3C(=O)N4CC#CC3CC3)(C1)C2` stands below 500 nM; under `CC#CCN1C(=O)c2cc(F)ccc2Sc2cc(NC(=O)C34CC(O)(C3)C4)ccc21`, below 500 nM.
On the same count and under the same terms, as for `O=C1c2ccccc2Sc2cc(NC(=O)[C@H]3C[C@@H](O)C3)cnc2N1CC#CC1CC1` [—CH2CC^cPr; cis-3-OH-cBu; CH/CH; N], the figure is below 500 nM.
On the same count and under the same terms, under `CON=C1CC2(C1)CC(C(=O)Nc1ccc3c(c1)Sc1ccccc1C(=O)N3CC#CCl)C2` (centres unmarked) stands below 500 nM; under `CC#CCN1C(=O)c2ccc(Cl)cc2Sc2cc(NC(=O)C3CCOC3)cnc21` (centres unmarked), below 500 nM.
In the case of `CC#CCN1C(=O)c2ccccc2Sc2cc(NC(=O)c3ccc(OC(F)(F)F)cc3)ccc21` [—CH2CCMe; 4-CF3OPh; CH/CH; CH], the IC50 is below 500 nM.
Consider `CC#CCN1C(=O)c2ccccc2Sc2cc(NC(=O)c3ccoc3)cnc21` [—CH2CCMe; furan-3-yl; CH/CH; N], for which the IC50 was below 500 nM.
In the case of `CC#CCN1C(=O)c2ccccc2Sc2cc(NC(=O)c3ccc(OC)nc3)ccc21` [—CH2CCMe; 6-MeO-pyrid-3-yl; CH/CH; CH], the IC50 is below 500 nM.
In the case of `CC#CCN1C(=O)c2ccccc2Sc2cc(NC(=O)[C@H]3C[C@H](O)C3)ccc21` [—CH2CCMe; trans-3-OH-cBu; CH/CH; CH], the IC50 is below 500 nM.
As to `CON=C1CC2(C1)CC(C(=O)Nc1ccc3c(c1)Sc1ccc(F)cc1C(=O)N3CC#CCl)C2` (centres unmarked), the IC50 was below 500 nM.

Still in this assay, the particulars now being: Table 9; HCT116, 72 hours; read-out: Activity.
For the compound `COC1CC(C(=O)Nc2ccc3c(c2)C(C#N)c2ccccc2C(=O)N3CC#CCF)C1` (stereo not drawn) [Table 9: —CH2CCCH2F; cis-3-MeOcBu; CHCN], the IC50 was below 500 nM.
On to `COc1ccc(C(=O)Nc2ccc3c(c2)C(C)(O)c2ccccc2C(=O)N3CC#CCl)cn1` (centres unmarked), for which the IC50 was below 500 nM.
Same read-out and setting: as for `CC#CCN1C(=O)c2ccccc2C(C#N)c2cc(NC(=O)C34CC(OC)(C3)C4)ccc21` (centres unmarked), the figure is below 500 nM; as for `COCC1CC(C(=O)Nc2ccc3c(c2)C(C#N)c2ccccc2C(=O)N3CC#CCF)C1` (centres unmarked) [Table 9: —CH2CCCH2F; 3-MeOCH2-cBu; CHCN], below 500 nM.
